The values below come from ChEMBL document CHEMBL6078636, “A Spatiotemporally Controlled and Mitochondria-Targeted Prodrug of Hydrogen Sulfide Enables Mild Mitochondrial Uncoupling for the Prevention of Lipid Deposition” (J Med Chem, 2024).

Molecules are shown by their SMILES. Calls of active or inactive are those of the source. The calls are words filed in the database; no cut-off is given here.

A short description of series [1]: Drug uptake in mouse AML12 cells at 10 uM incubated for 4 hrs followed by UV light-irradiation for 1 min by WSP-5 probe based analysis. The series is classed as ADME, cell-based. To be noted: aml12, 4.017 h, time 241 min.
The nature of series [2]: Prodrug release in mouse AML12 cells assessed as H2S metabolite release at 10 uM incubated for 4 hrs followed by UV light-irradiation for 1 min by 2-OH-Cou probe based analysis. The series is classed as ADME, cell-based. To be noted: aml12, 4.017 h, time 241 min.
Series [3] has as its system AML12. The series is described as follows: Induction of mitochondrial ROS in mouse AML12 cells harboring SQR knockdown under photo-irradiation. In kind it is functional, cell-based.
Series [4] deals with AML12. Description: Induction of mitochondrial uncoupling in oligomycin-treated mouse AML12 cells assessed as increase in OCR level at 10 uM incubated for 4 hrs followed by UV light-irradiation for 1 min under photo-irradiation. In kind it is functional, cell-based. The note with it: time 241.0 min.
Series [5] concerns AML12. Description: Induction of mitochondrial uncoupling in oligomycin-treated mouse AML12 cells assessed as decrease in intracellular ATP level incubated for 4 hrs followed by UV light-irradiation for 1 min under photo-irradiation. In kind it is functional, cell-based. The note with it: dose <= 10.0 µM, time 241.0 min.
A short description of series [6]: Prodrug release in mouse AML12 cells assessed as H2S metabolite release at 1 to 10 uM incubated for 4 hrs followed by UV light-irradiation for 1 min by 2-OH-Cou probe based analysis. The note with it: aml12, 4.017 h, dose 1-10 µM, time 241 min. In kind it is ADME, cell-based.
For series [7], the system named is AML12. The series is described as follows: Activation of mitochondrial AMPK in mouse AML12 cells assessed as increase in pMFF level under light irradiation upto 10 uM by Western blot analysis. In kind it is cell-based. To be noted: filed as activator.
Series [8] has as its system AML12. Description: Inhibition of excessive lipid deposition in mouse AML12 cells assessed as decrease in palmitic acid-induced total cholesterol at 1 to 10 uM by Oil Red O staining based analysis. To be noted: dose 1-10 µM. The series is classed as functional, cell-based.
Series [9] has as its system AML12. Description: Inhibition of mitochondrial membrane potential in mouse AML12 cells under UV light-irradiation measured for 30 mins by TMRE staining based analysis. The series is classed as functional, cell-based.
The subject of series [10] is AML12. The series is described as follows: Inhibition of excessive lipid deposition in mouse AML12 cells assessed as decrease in palmitic acid-induced lipid content by Oil Red O staining based analysis. The series is classed as functional, cell-based. To be noted: dose 1-10 µM.
The test system of series [11] is AML12. Description: Induction of H2O2 generation in mitochondria of mouse AML12 cells harboring SQR knockdown under photo-irradiation. The series is classed as functional.
Series [12] relates to AML12. Description: Activation of mitochondrial AMPK phosphorylation in mouse AML12 cells under light irradiation by Western blot analysis. The series is classed as cell-based. The note with it: filed as activator, dose <= 10.0 µM.
Series [13] has as its system AML12. Description: Activation of mitochondrial AMPK signal pathway in palmitic acid-stimulated mouse AML12 cells assessed as increase in pACC level under light irradiation at 1 to 10 uM by Western blot analysis. In kind it is cell-based. To be noted: filed as activator, dose 1-10 µM.
Series [14] has as its system AML12. The series is described as follows: Induction of mitochondrial ROS via reverse electron transport driven by sulfide quinone oxidoreductase in mouse AML12 cells assessed as decrease in ratio of NAD+/NADH levels under photo-irradiation. The series is classed as functional, cell-based.
For series [15], the system named is AML12. The series is described as follows: Activation of mitochondrial AMPK in mouse AML12 cells assessed as increase in pMFF level under light irradiation at 1 to 10 uM in presence of rotenone by Western blot analysis. In kind it is cell-based. To be noted: dose 1-10 µM. Background: A western blot detects proteins with antibodies after separation by electrophoresis.

Series [16] deals with AML12. Description: Induction of mitochondrial ROS via reverse electron transport driven by sulfide quinone oxidoreductase in mouse AML12 cells under photo-irradiation by MitoSOX staining based analysis. The series is classed as functional, cell-based.
Series [17] in a line: Prodrug conversion in mouse AML12 cells assessed as H2S metabolite release at 10 uM incubated for 4 hrs followed by UV light-irradiation for 1 min by […] based analysis. The series is classed as ADME, cell-based. The note with it: aml12, 4 h.
The test system of series [18] is AML12. The series is described as follows: Inhibition of excessive lipid deposition in mouse AML12 cells assessed as decrease in palmitic acid-induced total triglycerides at 1 to 10 uM by Oil Red O staining based analysis. In kind it is functional, cell-based. To be noted: dose 1-10 µM.
Series [19] has as its system AML12. Description: Induction of H2O2 generation in mitochondria of mouse AML12 cells under photo-irradiation. The series is classed as functional.
The nature of series [20]: Prodrug conversion assessed as H2S metabolite release upto 100 uM under photo-irradiation by methylene blue dye based analysis. In kind it is ADME.
In series [21] the test system is AML12. Description: Inhibition of excessive lipid deposition in mouse AML12 cells assessed as decrease in palmitic acid-induced free fatty acid at 1 to 10 uM by Oil Red O staining based analysis. In kind it is functional, cell-based. To be noted: dose 1-10 µM.
The nature of series [22]: Prodrug conversion in mouse AML12 cells assessed as H2S metabolite release at 1 to 10 uM incubated for 4 hrs followed by UV light-irradiation for 1 min by WSP-5 probe based analysis. The series is classed as ADME, cell-based. The note with it: aml12, 4.017 h, dose 1-10 µM, time 241 min.
Series [23] relates to AML12. The series is described as follows: Activation of mitochondrial AMPK signal pathway in palmitic acid-stimulated mouse AML12 cells under light irradiation in presence of AMPK inhibitor by Western blot analysis. In kind it is cell-based.
Series [24] relates to AML12. Description: Activation of mitochondrial AMPK in mouse AML12 cells assessed as increase in pACC level under light irradiation by Western blot analysis. To be noted: filed as activator, dose <= 10.0 µM. The series is classed as cell-based.
Series [25] relates to AML12. Description: Inhibition of mitochondrial membrane potential in mouse AML12 cells under UV light-irradiation by JC-1 staining based analysis. In kind it is functional, cell-based.
Series [26] has as its system AML12. The series is described as follows: Induction of mitochondrial ROS via reverse electron transport driven by sulfide quinone oxidoreductase in mouse AML12 cells assessed as decrease in ratio of NAD+/NADH levels under photo-irradiation in presence of rotenone. In kind it is functional, cell-based.
Series [27] deals with AML12. Description: Cytotoxicity against mouse AML12 cells pretreated for 24 hrs followed by UV light-irradiation for 1 min by MTT assay. In kind it is toxicity, cell-based. To be noted: aml12, 24.02 h, time 1441 min. For orientation: Tetrazolium assays rely on reduction of a dye to a coloured formazan, in cell work by metabolically active cells.
The test system of series [28] is AML12. The series is described as follows: Inhibition of mitochondrial membrane potential in mouse AML12 cells under UV light-irradiation measured after 24 hrs by TMRE staining based analysis. In kind it is functional, cell-based.
Series [29] has as its system AML12. Description: Induction of mitochondrial ROS via reverse electron transport driven by sulfide quinone oxidoreductase in mouse AML12 cells assessed as increase in ratio of CoQH2/CoQ levels under photo-irradiation. The series is classed as functional, cell-based.
In series [30] the test system is AML12. The series is described as follows: Activation of mitochondrial AMPK in mouse AML12 cells harboring SQR knockdown assessed as increase in pMFF level under light irradiation at 1 to 10 uM by Western blot analysis. The series is classed as cell-based. The note with it: dose 1-10 µM.
The nature of series [31]: Prodrug conversion in mouse AML12 cells assessed as H2S metabolite release at 10 uM incubated for 4 hrs followed by UV light-irradiation for 1 min by WSP-5 probe based analysis. The note with it: aml12, 4.017 h, time 241 min. The series is classed as ADME, cell-based.

Regarding `Cc1cc(C)c(C(C)(C)CC(=O)S)c(OC(=O)OCc2cc3ccc(OCc4cc(OCCCC[P+](c5ccccc5)(c5ccccc5)c5ccccc5)ccc4[N+](=O)[O-])cc3oc2=O)c1`, in series [1], the Drug uptake is given as 100%. For the same compound, the Drug metabolism result in [2], in series [6], in series [17] and in series [22] was “metabolite_detected” in each case. The result in the series with AML12 [3], in the series with AML12 [4], with AML12 [7], with AML12 [11], with AML12 [14] and in the series with AML12 [16] was Active. The outcome in the series on AML12 [19] and in the series with AML12 [29] was Active. Further, the Activity entry was “Dose-dependent-effect; Activity Superior To M2, Ap39, Adt-Oh” in the series with AML12 [5]; “Dose-dependent-effect; Exhibited More Potency Than Ap39 And Adt-Oh” with AML12 [12]; “Active; Exhibited More Potency Than Ap39 And Adt-Oh” in the series on AML12 [13]; “Active” in series [20]; “Dose-dependent-effect; Exhibited More Potency Than Ap39 And Adt-Oh” in the series with AML12 [24]; “Non-toxic” in the series with AML12 [27]. Besides, the inhibition result in the series with AML12 [8], in the series with AML12 [9], in the series with AML12 [18] and in the series with AML12 [21] was “Active” each time. Moreover, in the series on AML12 [10], the inhibition entry is given as “Dose-dependent-effect; Exhibited As More Effective Than Ap39 And Adt-Oh”. Further, the result in the series on AML12 [15], in the series on AML12 [23], with AML12 [26] and with AML12 [30] was inactive. In addition, the inhibition entry in the series with AML12 [25] and in the series with AML12 [28] was “inactive” each time.
Consider `O=C(CCCCCCCCC[P+](c1ccccc1)(c1ccccc1)c1ccccc1)Oc1ccc(-c2cc(=S)ss2)cc1.[Br-]`, for which the Drug metabolism result in [31] was “metabolite_detected”. Moreover, the inhibition entry in the series on AML12 [25] was “inactive”.
Turning to `Oc1ccc(-c2cc(=S)ss2)cc1`, in the series with AML12 [25], the inhibition entry was “inactive”.
In the case of `Cc1cc(C)c(C(C)(C)CC(=O)S)c(OC(=O)OCc2cc3ccc(OCc4ccccc4[N+](=O)[O-])cc3oc2=O)c1`, the Drug metabolism entry in series [2] was “metabolite_notdetected”. Also, the inhibition entry with AML12 [25] is “inactive”. Moreover, in the series with AML12 [27], the Activity entry was “Non-toxic”.
